Measured values as given in article PMC8308721 (Pharmaceutics, 2021).
Several values for one entry are separate records, joined by “and”; a condition that tells them apart may be missing. Equal values may be shown once. Entries after “also recorded” stand apart in the source; their conditions may differ.

Tests used:
[1] = Peptide stability in mouse plasma (UPLC); assay type: in vitro ADME; details: for Recovered Peptide after 1 h in Mouse Plasma [%]: CD-1 mouse plasma, 37 °C, esters recovered as the corresponding acid
Description: (§1) The in vitro stability of peptides was assessed according to a previously described protocol with modifications. Peptides (3 g/L, 49 µL) dissolved in […] (DMSO/TWEEN 80/normal saline (5/5/90, v/v/v) were diluted with pooled mouse dipotassium ethylenediaminetetraacetic acid containing pooled plasma (Innovative Research, Novi, MI, USA) or pooled human cerebrospinal fluid (CSF) (both BioIVT, Westbury, NY, USA) to a total volume of 500 µL. The final peptide concentration was kept constant at 315 µmol/L in all experiments. The mixture was incubated (37 °C, 750 rpm; Thermomixer, Eppendorf AG, Hamburg, Germany) and an aliquot (95 µL) was taken at 0, 5, 15, 60, and 300 min. For peptide quantification, the sample was mixed with aqueous acetonitrile (90%, v/v, 300 µL) containing FA, 0.1% v/v and incubated on ice for 30 min. After two centrifugation steps (21,100× g, 3 min, Sorvall Legend Micro 21R Centrifuge, Thermo Scientific, Waltham, MA, USA), the supernatant (300 µL) was collected, freeze-dried (FreeZone Triad Cascade Benchtop, Labcono, Kansas City, MO, USA), reconstituted in aqueous acetonitrile (4.5%, v/v) containing FA (0.1%, v/v), and stored at −20 °C. Samples were analyzed by ultra-performance liquid chromatography (UPLC).
An ACQUITY UPLC H-Class chromatography system (Waters, Milford, MA, USA) coupled on-line to a photodiode array detector (absorbance recorded at 214 nm, Waters) and to the electrospray ionization source on a mass spectrometer (QDa detector, Waters) operated in the positive ion mode was used. Separation relied on a BEH-C18 column (inner diameter: 1.1 mm; length: 50 mm; particle size: 1.7 µm, Waters) at a flow rate of 0.1 mL/min using a linear aqueous acetonitrile gradient in the presence of FA (0.1%, v/v). Ionization was carried out at a source temperature of 450 °C using a cone voltage of 10 V and a capillary voltage of 1.5 kV. Mass spectra were typically acquired for an m/z range from 50 to 1250 at a sampling rate of 2 points per second. Quantities of the degraded peptides and resulting metabolites were estimated using peak areas of the UV signal at 214 nm relative to the initial peak areas (t = 0). Metabolites were identified using mass spectrometry by detecting the singly charged molecular ions.

[2] = Peptide stability in human cerebrospinal fluid (UPLC); assay type: in vitro ADME; details: pooled human cerebrospinal fluid, pooled human CSF, read-out: peptide recovered in CSF after 5 h of incubation
Description: as §1, with “After two centrifugation steps (21,100× g, 3 min, Sorvall Legend Micro 21R Centrifuge, Thermo Scientific, Waltham, MA, USA), the supernatant (300 µL) was collected, freeze-dried (FreeZone Triad Cascade Benchtop, Labcono, Kansas City, MO, USA), reconstituted in aqueous acetonitrile (4.5%, v/v) containing FA (0.1%, v/v), and stored at −20 °C.” left out
An ACQUITY UPLC H-Class chromatography system (Waters, Milford, MA, USA) coupled on-line to a photodiode array detector (absorbance recorded at 214 nm, Waters) and to the electrospray ionization source on a mass spectrometer (QDa detector, Waters) operated in the positive ion mode was used. […] Quantities of the degraded peptides and resulting metabolites were estimated using peak areas of the UV signal at 214 nm relative to the initial peak areas (t = 0). […]

female CD-1 mice [3] = assay: Hot-plate test; assay type: in vivo, mouse; details: for Antinociception (AUC0-5h, %MPE·h): s.c. 20 µmol/kg (~13 mg/kg), female CD-1 mice
Description: Animal use and procedures were in accordance with the guidelines of The University of British Columbia animal care committee and the Canadian Council for Animal Care (CCAC, Protocol code: A17-0128, approval date: 30 August 2018). Experiments involved adult female CD-1 mice (25–30 g) housed under a 12 h light/dark cycle and had ad libitum access to rodent chow and water. Mice were allowed an acclimatization period of at least one week in the animal facility before experiments. Subcutaneous (s.c.) or intraperitoneal (i.p.) injections of drugs or vehicles were administered to animals at a volume of 10 mL/kg. In the formalin foot assay, each mouse was used once and euthanized immediately upon completion of the experiment due to irreversible tissue damage in the injected paw.
(§2) A commercially available hot-plate analgesia meter consisting of a round aluminum surface with (25 cm diameter) from Harvard Apparatus (Holliston, MA, USA) was used. A day before the experiment mice were acclimatized for 5 min in a transparent Plexiglas cylinder (height, 30 cm; diameter, 25 cm) on the switched-off hot-plate apparatus. Thereafter, the baseline latency of each animal was measured on the hot surface (52.0 ± 0.1 °C, 30 s cut-off time to prevent tissue damage) until a nociceptive response was induced. The animal was immediately removed from the hot surface after licking, lifting, or fluttering of the hind paws was observed. Latency responses after treatment were obtained in the same way. The %MPE for each animal was calculated using this equation: %MPE = (LR − BR)/(MR − BR)100%, where LR, MR, and BR represent measured, maximum (30 s), and baseline (~5 s) response time, respectively. The AUC for each animal was calculated from the %MPE time courses using this equation: AUC = (%MPE(Tp1) + %MPE(Tp2))·(Tp2 − Tp1)/2, where Tp represents the time interval between adjacent time points on the curve. Data were plotted as mean ± SEM.

human DOR = biological target: T1, human DOR (Homo sapiens, UniProt P41143); assay: Competitive radioligand ([3H]DADLE) displacement assay at DOR; assay type: binding; details: analog at 6 nM
T1 construct: host or cells: COS-1 cells
Description: The binding affinity of peptides to the DOR was performed by Eurofins Cerep SA (Celle-Lévescault, France) using a competitive radioligand displacement assay according to a previously described method.

plasma = details: cited from earlier work
[4] = pooled mouse dipotassium ethylenediaminetetraacetic acid containing pooled plasma; details: 37 °C, up to 300 min
female CD-1 mice [5] = assay: Formalin foot assay; assay type: in vivo, mouse; details: morphine 10 mg/kg s.c.
Description: On the day of the experiment, mice were acclimatized to the experimental setup by putting them in darkened, non-transparent plexiglas cylinders (height, 20 cm; diameter, 9 cm) placed on a glass plane for 2 h. […] After successful injection, mice were immediately placed into cylinders and their behavior was monitored for 1 h. Video cameras (Lorex Technology, Markham, ON, Canada) underneath each animal were used to record the nociceptive responses defined as licking or biting at the formalin injected right paw. The accumulated licking and biting time of each animal was determined and recorded in 5 min bins. The total response time was plotted as early phase 1 from 0 to 5 min, and late phase 2 from 20 to 40 min after formalin injection.

female CD-1 mice [6] = assay: Respiratory depression assay; assay type: in vivo, mouse
Description: The respiratory rate was assessed in awake mice lightly restrained in a well-ventilated 50 mL falcon tube with a darkened tip. Prior to the drug treatment, each animal was habituated in the tube for 30 min. The falcon tube was secured onto a stand facing lengthwise towards a video camera. […] Animals were recorded at selected time points for 10 min to measure the respiration rate.

female CD-1 mice [7] = assay: Dependence study, Nlx-induced jumps; details: 8 days, Nlx 4 mg/kg i.p.
Description: Two hours after the last injection at 3 PM, mice received an i.p. injection of Nlx (4 mg/kg), after which they were immediately placed in a Plexiglas cylinder (height, 30 cm; diameter, 25 cm). The number of jumps induced by Nlx, defined as simultaneous removal of all four paws from the ground surface, were counted.

[8] = day six of treatment; cited from earlier work
C57BL6 mice = details: cited from earlier work
mice = details: mouse, in vivo; cited from earlier work
female CD-1 mice [9] = assay: Safety test in mice, escalating doses; assay type: in vivo, mouse
Source text: (§3) Throughout the eight-day duration of experiments investigating the development of physical dependence and tolerance, clinical health scores (CHS) of mice on a 5-point scale (0 normal and 5 highest severity) provided by the University of British Columbia Animal Care Committee were monitored. Scores were given in 5 categories (appearance (grooming, posture), behavior (gait, activity), local injection site skin appearance, neurological signs, and body weight). Based on the guidelines, mice with a score of 5 in any category or a cumulative score of >15, or body weight loss of >20% would be euthanized.
Mice were then monitored for mortality and clinical signs including respiratory activity, body weight, hydration, behavior (self-biting and circling), and pain assessment (Facial Grimace) to determine the maximum tolerated dose.

female CD-1 mice [10] = assay: Tolerance study, hot-plate after repeated dosing; assay type: in vivo, mouse; details: multidose tolerance and physical dependence tests, 5-point scale
Source text: as §3
as §2, with “A day before the experiment mice were acclimatized for 5 min in a transparent Plexiglas cylinder (height, 30 cm; diameter, 25 cm) on the switched-off hot-plate apparatus.” left out, “The animal was immediately removed from the hot surface after licking, lifting, or fluttering of the hind paws was observed. Latency responses after treatment were obtained in the same way.” left out, “Data were plotted as mean ± SEM.” left out

[11] = morphine s.c. 10 mg/kg, hot-plate

T1 sequence (P41143 whole entry): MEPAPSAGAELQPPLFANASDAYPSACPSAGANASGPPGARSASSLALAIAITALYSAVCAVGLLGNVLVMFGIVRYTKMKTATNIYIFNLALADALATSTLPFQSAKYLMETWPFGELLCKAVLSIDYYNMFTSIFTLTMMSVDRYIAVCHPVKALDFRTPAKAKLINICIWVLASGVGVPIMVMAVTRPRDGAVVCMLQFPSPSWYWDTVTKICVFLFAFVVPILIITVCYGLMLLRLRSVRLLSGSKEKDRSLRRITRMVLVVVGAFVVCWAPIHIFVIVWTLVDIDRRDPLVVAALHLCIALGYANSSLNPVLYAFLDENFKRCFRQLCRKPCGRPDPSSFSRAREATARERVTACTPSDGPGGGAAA

Compound: CC(C)C[C@H](NC(=O)[C@H](Cc1ccccc1)NC(=O)CNC(=O)CNC(=O)[C@@H](N)Cc1ccc(O)cc1)C(=O)O [Leu-ENK, Leu-Enkephalin]
- intact peptide remaining in plasma after 5 h of incubation ([1]; 5 h, plasma): undetectable
- Recovered Peptide after 1 h in Mouse Plasma [%] [1]: 23 ± 3% and 23 ± 2%
- remaining at 5 h, 315 µmol/L [2]: > 80%
- Antinociception (AUC0-5h, %MPE·h) (female CD-1 mice [3]; hot-plate): 14 %MPE·h and 14 ± 6 %MPE·h
- peak antinociception (female CD-1 mice [3]; s.c. 13 mg/kg, hot-plate): ~ 10 %MPE
- time of decline of antinociception to baseline (female CD-1 mice [3]; s.c. 13 mg/kg, hot-plate): 1.5 h
- time of peak antinociception post-injection (female CD-1 mice [3]; s.c. 13 mg/kg, hot-plate): 1 h

Compound: COC(=O)[C@H](CC(C)C)NC(=O)[C@H](Cc1ccccc1)NC(=O)CNC(=O)CNC(=O)[C@H](Cc1ccc(O)cc1)NC(=O)C(C)(C)C [KK-102]
- Recovered Peptide after 1 h in Mouse Plasma [%] [1]: 94 ± 5% and 94 ± 3%
- half-life ([1]; mouse, plasma): 2.5 min
- increase of antinociception AUC compared to Leu-ENK (female CD-1 mice [3]; hot-plate, s.c. ~13 mg/kg): 8 fold
- Antinociception (AUC0-5h, %MPE·h) (female CD-1 mice [3]; hot-plate): 112 %MPE·h and 112 ± 24 %MPE·h

Compound: COC(=O)[C@H](CC(C)C)NC(=O)[C@H](Cc1ccccc1)NC(=O)CNC(=O)CNC(=O)[C@H](Cc1ccc(O)cc1)NC(=O)Cc1ccccc1 [KK-81]
- Recovered Peptide after 1 h in Mouse Plasma [%] [1]: 88 ± 7%
- Relative Binding to DOR Compared to Leu-ENK [%] (human DOR): 41 ± 25%

Compound: CCCCCC(=O)N[C@@H](Cc1ccc(O)cc1)C(=O)NCC(=O)NCC(=O)N[C@@H](Cc1ccccc1)C(=O)N[C@@H](CC(C)C)C(=O)OC [KK-93]
- Recovered Peptide after 1 h in Mouse Plasma [%] [1]: 85 ± 7%
- Antinociception (AUC0-5h, %MPE·h) (female CD-1 mice [3]; hot-plate): 51 ± 13 %MPE·h

Compound: H2N-YGGFL-COOH
- cleaved bond (plasma): Tyr-Gly, first_seen; also recorded: Gly-Phe
- fragment found [4]: H2N-GGFL-COOH, major; also recorded: H2N-FL-COOH, major

Compound: COC(=O)[C@H](CC(C)C)NC(=O)[C@H](Cc1ccccc1)NC(=O)CNC(=O)CNC(=O)[C@H](Cc1ccc(O)cc1)NC(=O)C1CCCCC1 [KK-112]
- Recovered Peptide after 1 h in Mouse Plasma [%] [1]: 62 ± 4%
- Antinociception (AUC0-5h, %MPE·h) (female CD-1 mice [3]; hot-plate): 51 ± 10 %MPE·h

Compound: CN1CC[C@]23c4c5ccc(O)c4O[C@H]2[C@@H](O)C=C[C@H]3[C@H]1C5 [morphine]
- antinociception at 2 h (female CD-1 mice [3]; morphine s.c. 10 mg/kg, 2 h): ~ 10 %MPE
- maximum antinociception (female CD-1 mice [3]; [11]): 87 %MPE
- time to maximum antinociception (female CD-1 mice [3]; [11]): ≤ 15 min
- reduction of paw licking and biting time compared to control, phase 1 (female CD-1 mice [5]; phase 1 (0–5 min)): 30%
- nociceptive response, phase 2 (female CD-1 mice [5]; phase 2 (20–40 min)): completely diminished the nociceptive response
- decrease of respiratory rate compared with vehicle (female CD-1 mice [6]; morphine 10 mg/kg s.c., 30 min post-injection): 56%
- physical dependence, Nlx-induced withdrawal (female CD-1 mice [7]; morphine 10 mg/kg twice daily): significant withdrawal syndromes
- residual effect of morphine [8]: approximately 30%
- time of peak effect (C57BL6 mice): 20 min
- decrease of breathing rate (mice): 1.7 fold

Compound: C=CCCC(=O)N[C@@H](Cc1ccc(O)cc1)C(=O)NCC(=O)NCC(=O)N[C@@H](Cc1ccccc1)C(=O)N[C@@H](CC(C)C)C(=O)OC [KK-105]
- Recovered Peptide after 1 h in Mouse Plasma [%] [1]: 80 ± 7%

Compound: CCCCCCCC(=O)N[C@@H](Cc1ccc(O)cc1)C(=O)NCC(=O)NCC(=O)N[C@@H](Cc1ccccc1)C(=O)N[C@@H](CC(C)C)C(=O)OC [KK-108]
- Recovered Peptide after 1 h in Mouse Plasma [%] [1]: 73 ± 4%
- Antinociception (AUC0-5h, %MPE·h) (female CD-1 mice [3]; hot-plate): 48 ± 15 %MPE·h

Compound: COC(=O)[C@H](CC(C)C)NC(=O)[C@H](Cc1ccccc1)NC(=O)CNC(=O)CNC(=O)[C@H](Cc1ccc(O)cc1)NC(C)=O [KK-14]
- Recovered Peptide after 1 h in Mouse Plasma [%] [1]: 82 ± 5%

Compound: CC(C)C[C@H](NC(=O)[C@H](Cc1ccccc1)NC(=O)CNC(=O)CNC(=O)[C@H](Cc1ccc(O)cc1)NC(=O)C(C)(C)C)C(=O)O [KK-103]
- Recovered Peptide after 1 h in Mouse Plasma [%] [1]: 93 ± 1%
- extrapolated plasma half-life ([1]; mouse plasma in vitro, extrapolated from 5 h incubation): 37 h
- remaining at 5 h, 315 µmol/L ([1]; mouse, pooled mouse K2EDTA plasma, 5 h, plasma, read-out: intact peptide remaining in plasma after 5 h of incubation): > 90%
- increase of plasma half-life over Leu-ENK ([1]; plasma in vitro): ~ 90 fold and 90 fold
- remaining at 5 h, 315 µmol/L [2]: > 95%
- abnormal behaviors / clinical scores at maximum deliverable dose (female CD-1 mice [9]; s.c. 650 mg/kg): did not show any signs of abnormal behaviors
- maximum deliverable dose (safe) (female CD-1 mice [9]; s.c., limited by solubility): 650 mg/kg
- respiration rate versus vehicle (female CD-1 mice [6]; KK-103 13 mg/kg s.c., 30 to 240 min): comparable to that of mice treated with vehicle
- physical dependence, Nlx-induced jumps in first 10 min (female CD-1 mice [7]; KK-103 13 mg/kg twice daily): not a single jump was observed
- clinical health score (CHS) (female CD-1 mice [10]): 0
